This experiment is described as follows: Compound was tested for inhibitory activity against type II Phospholipase A2 (PLA2) isolated from japanese mamushi (Agkistrodon halys blomhoffii) venom.
The IC50 is the point on the concentration scale where inhibition reaches its midpoint. Consider `CCCCCCCCCCCC(=O)N[C@H](CCCC)COP(=O)([O-])OCC[N+](C)(C)C` [(2-{[2-((S)-Dodecanoylamino)-hexyloxy]-hydroxy-phosphoryloxy}-ethyl)-trimethyl-ammonium], for which the IC50 is 5.3 µM.

For `CCCCCCCCCCCC(=O)N1C(=O)O[C@@H](COP(=O)([O-])OCC[N+](C)(C)C)[C@H]1CCC` [{2-[((4R,5S)-3-Dodecanoyl-2-oxo-4-propyl-oxazolidin-5-ylmethoxy)-hydroxy-phosphoryloxy]-ethyl}-trimethyl-ammonium], inhibition was half-maximal at 45.8 µM (IC50).

Turning to `CCCCCCCCCCCC(=O)N1C(=O)O[C@H](COP(=O)([O-])OCC[N+](C)(C)C)[C@@H]1CCC` [{2-[((4S,5R)-3-Dodecanoyl-2-oxo-4-propyl-oxazolidin-5-ylmethoxy)-hydroxy-phosphoryloxy]-ethyl}-trimethyl-ammonium], half-maximal inhibition (IC50) was put at 52.9 µM.

In turn, `CCCCCCCCCCCC(=O)N1C(=O)O[C@H](COP(=O)([O-])OCC[N+](C)(C)C)[C@H]1CCC` [{2-[((4R,5S)-3-Dodecanoyl-2-oxo-4-propyl-oxazolidin-5-ylmethoxy)-hydroxy-phosphoryloxy]-ethyl}-trimethyl-ammonium] returned an IC50 of 19.8 µM.

Compound `CCCCCCCCCCCC(=O)N1C(=O)O[C@@H](COP(=O)([O-])OCC[N+](C)(C)C)[C@@H]1CCC` [{2-[((4S,5S)-3-Dodecanoyl-2-oxo-4-propyl-oxazolidin-5-ylmethoxy)-hydroxy-phosphoryloxy]-ethyl}-trimethyl-ammonium] displayed an IC50 of 40.1 µM.

In turn, `CCCCCCCCCCCC(=O)N1C(=O)OC[C@@H]1COP(=O)([O-])OCC[N+](C)(C)C` [{2-[((R)-3-Dodecanoyl-2-oxo-oxazolidin-4-ylmethoxy)-hydroxy-phosphoryloxy]-ethyl}-trimethyl-ammonium] returned an IC50 of 31.3 µM.

The values are drawn from BindingDB's records for doi:10.1016/s0960-894x(98)00641-6 (Kwansei Gakuin University, 1999).
